From PubChem BioAssay (NCI)
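A five-concentration, 48-hour dose response in 96-well plates underlies each endpoint, interpolated linearly between surrounding concentrations. Here, GI50 denotes the concentration required for 50% inhibition of growth. TGI: concentration producing complete growth inhibition.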

Experiments:
Test in all cases: NCI-60 cell line screen, 48 h
786-0 renal = test system: 786-0 renal
A498 renal = test system: A498 renal
A549 NSCLC = test system: A549 NSCLC
ACHN renal = test system: ACHN renal
BT-549 breast = test system: BT-549 breast
CAKI-1 renal = test system: CAKI-1 renal
CCRF-CEM leukemia = test system: CCRF-CEM leukemia
COLO 205 colon = test system: COLO 205 colon
DU-145 prostate = test system: DU-145 prostate
EKVX NSCLC = test system: EKVX NSCLC
HCC-2998 colon = test system: HCC-2998 colon
HCT-116 colon = test system: HCT-116 colon
HCT-15 colon = test system: HCT-15 colon
HL-60(TB) leukemia = test system: HL-60(TB) leukemia
HOP-62 NSCLC = test system: HOP-62 NSCLC
HOP-92 NSCLC = test system: HOP-92 NSCLC
HS 578T breast = test system: HS 578T breast
HT29 colon = test system: HT29 colon
IGROV1 ovarian = test system: IGROV1 ovarian
K-562 leukemia = test system: K-562 leukemia
KM12 colon = test system: KM12 colon
LOX IMVI melanoma = test system: LOX IMVI melanoma
M14 melanoma = test system: M14 melanoma
MALME-3M melanoma = test system: MALME-3M melanoma
MCF7 breast = test system: MCF7 breast
MDA-MB-231 breast = test system: MDA-MB-231 breast
MDA-MB-435 = test system: MDA-MB-435
MOLT-4 leukemia = test system: MOLT-4 leukemia
NCI-H226 lung = test system: NCI-H226 lung

C[C@@H]1COCCN1c1cc(C2([S@@](C)(=N)=O)CC2)nc(-c2ccnc3[nH]ccc23)n1
GI50 (786-0 renal): 2.7 µM | TGI (786-0 renal): 26.8 µM | GI50 (A498 renal): 0.716 µM | TGI (A498 renal): 4.2 µM | GI50 (A549 NSCLC): 4.27 µM | TGI (A549 NSCLC): > 100 µM | GI50 (ACHN renal): 2.17 µM | TGI (ACHN renal): > 51.3 µM | GI50 (BT-549 breast): 2.68 µM | TGI (BT-549 breast): 23.7 µM | GI50 (CAKI-1 renal): 11.7 µM | TGI (CAKI-1 renal): > 79.2 µM | GI50 (CCRF-CEM leukemia): 2.55 µM | TGI (CCRF-CEM leukemia): > 42.5 µM | GI50 (COLO 205 colon): 7.69 µM | TGI (COLO 205 colon): > 83.1 µM | GI50 (DU-145 prostate): 4.71 µM | TGI (DU-145 prostate): > 100 µM | GI50 (EKVX NSCLC): 5.78 µM | TGI (EKVX NSCLC): 67.4 µM | GI50 (HCC-2998 colon): 4.69 µM | TGI (HCC-2998 colon): > 100 µM | GI50 (HCT-116 colon): 7.38 µM | TGI (HCT-116 colon): > 100 µM | GI50 (HCT-15 colon): 10 µM | TGI (HCT-15 colon): > 100 µM | GI50 (HL-60(TB) leukemia): 3.87 µM | TGI (HL-60(TB) leukemia): 41.5 µM | GI50 (HOP-62 NSCLC): 3.74 µM | TGI (HOP-62 NSCLC): 63.6 µM | GI50 (HOP-92 NSCLC): 1.56 µM | TGI (HOP-92 NSCLC): 15.4 µM | GI50 (HS 578T breast): 3.73 µM | TGI (HS 578T breast): 34.9 µM | GI50 (HT29 colon): 6.41 µM | TGI (HT29 colon): > 100 µM | GI50 (IGROV1 ovarian): 5.11 µM | TGI (IGROV1 ovarian): > 71.1 µM | GI50 (K-562 leukemia): 8.91 µM | TGI (K-562 leukemia): > 100 µM | GI50 (KM12 colon): 5.8 µM | TGI (KM12 colon): > 100 µM | GI50 (LOX IMVI melanoma): 2.14 µM | TGI (LOX IMVI melanoma): 14 µM | GI50 (M14 melanoma): 3.52 µM | TGI (M14 melanoma): 26.4 µM | GI50 (MALME-3M melanoma): 7.32 µM | TGI (MALME-3M melanoma): 54.6 µM | GI50 (MCF7 breast): 0.956 µM | TGI (MCF7 breast): > 100 µM | GI50 (MDA-MB-231 breast): 8.18 µM | TGI (MDA-MB-231 breast): > 100 µM | GI50 (MDA-MB-435): 5.27 µM | TGI (MDA-MB-435): > 100 µM | GI50 (MOLT-4 leukemia): 3.99 µM | TGI (MOLT-4 leukemia): 62.6 µM | GI50 (NCI-H226 lung): 4.26 µM
